Assay results as given in patent publication US9782397B2, “Treatment of corneal neovascularization” (IRBM SCIENCE PARK S.P.A., priority 2011, dated 2017).
“Also recorded” adds a separate entry of the source. Ends that are not written are not given here.

Experiments:
[1] = test system: corneal neovascularization; assay: b-FGF pellet implantation angiogenesis model (mouse corneal micropocket); type: in vivo, C57Bl/6 mice; conditions: 1 mg/ml topical, 4 times per day for 1 week
Protocol: Male 6- to 8-week-old C57Bl/6 mice (Taconic Farms, Germantown, N.Y.) were used in experiments for Examples 1 to 3. Male 6- to 8-week-old C57Bl/6 mice (Charles River Lab, Calco, Milan, Italy) were used in experiments for Examples 4-6. Prior to pellet implantation or caustication, animals were anesthetized by intraperitoneal injection of ketamine (120 mg/kg) and xylazine (20 mg/kg) before any surgery.
b-FGF Pellet Implantation Angiogenesis Model
This model was employed to assess the effect of pharmaceutically active substances on the angiogenesis component of CNV.
Sustained release b-FGF micropellets (40 ng/pellet) were prepared as described in Azar D T, Am Ophthalmol Soc 2006; 104:264-302.
Briefly, the pellets were implanted through half thickness linear incisions at the center of cornea using a disposable 30 degrees microknife (F.S.T., Foster City, Calif., USA). Lamellar pocket incisions were then made parallel to the corneal plane using a Von Graefe knife (F.S.T., Foster City, Calif., USA) and advanced to the temporal limbus at lateral canthal area. The pellets were positioned into the pocket 1.0 mm apart from the limbal vascular arcade in temporal side, and tetracycline ophthalmic ointment was applied to the eye after pellet implantation to prevent post surgical infections.
(§1) After taking photographs under the slit lamp, five mice per group were sacrificed 7 days after b-FGF micropellet implantation or caustication, and freshly enucleated eyes were prepared into corneal flat mounts. Immunohistochemical staining was performed with FITC-conjugated CD31/PECAM-1 (rat-anti-mouse antibody; 1:100; Santa Cruz Biotechnology, Santa Cruz, Calif.). Images were taken at 40×, 400× and 600× magnification. To quantify the blood vessels, corneal whole-mounts were covered with mounting medium (Vector, Burlingame, Calif.) and examined by an epifluorescent microscope. For toxicity studies, mice were examined at the slit lamp daily. Animals were sacrificed seven days later and eye bulbs were removed, fixed in 4% paraformaldehyde, cross-sectioned and stained with standard hematoxylin-eosin. At least three to five different corneas were examined; representative data are presented.
Both slit-lamp and fluorescence microscopy pictures were qualitatively compared for the amount of corneal neovascularization. Gross anatomical alterations such as disruption of epithelial layer, inflammatory cell infiltration, or endothelial cell loss were searched in hematoxylin-eosin cross sections. […]
Following b-FGF pellet implantation, neovessels are expected to grow from the limbal vessels (i.e. from the periphery of the cornea), towards the pellet, which is placed in the avascular cornea. The extent of neovascularisation is then evaluated.

[2] = test system: corneal neovascularization; assay: Alkali burn (sodium hydroxide caustication) neovascularization model; type: in vivo, C57Bl/6 mice; conditions: for corneal perforation / corneal transparency / incidence of symblepharon and ankyloblepharon / lid anatomy: topical treatment of ocular burns, Examples 4-6
Protocol: Prior to pellet implantation or caustication, animals were anesthetized by intraperitoneal injection of ketamine (120 mg/kg) and xylazine (20 mg/kg) before any surgery.
In fact, the Alkali burn model is considered an inflammation-driven model of neovascularisation, whereby a reduction in inflammatory cell influx is associated with clinical improvement.
Mice were anesthetized by intraperitoneal injection of ketamine (120 mg/kg) and xylazine (20 mg/kg) before any surgery. A 2-mm disc of filter paper saturated with 1 N NaOH was placed onto the right cornea of each mouse for 40 seconds, followed by rinsing extensively with phosphate-buffered saline (PBS) for 2 minutes.
as §1
(§2) Both slit-lamp and fluorescence microscopy pictures were qualitatively compared for the amount of corneal neovascularization. Gross anatomical alterations such as disruption of epithelial layer, inflammatory cell infiltration, or endothelial cell loss were searched in hematoxylin-eosin cross sections.
Male 6- to 8-week-old C57Bl/6 mice were treated to induce neovascularization using sodium hydroxide caustication (see Experimental Methods)
5 mice per group were used. After taking photographs at the slit lamp, mice were sacrificed. Immunohistochemical staining was performed with FITC-conjugated CD31/PECAM-1 to reveal corneal neovessels.
Lanepitant (WO9907681) was dissolved in PBS. It was administered topically to the eye with the following dose regimen after alkali burn induced neovascularization of the cornea: • 0.4 mg/ml, 6 times a day for 4 days, starting on the day of the tissue injury (“Day 0” to “Day 3”). • 1.6 mg/ml, 6 times a day for 4 days, starting on the day of the tissue injury (“Day 0” to “Day 3”). • 6.4 mg/ml, 6 times a day for 4 days, starting on the day of the tissue injury (“Day 0” to “Day 3”). • PBS Control, 6 times a day for 4 days, starting on the day of the tissue injury (“Day 0” to “Day 3”).
Three mice (for a total of 6 eyes) were treated in each experimental group.
On Day 4, After taking photographs at the slit lamp, mice were sacrificed. Immunohistochemical staining was performed with FITC-conjugated CD31/PECAM-1 to reveal corneal neovessels (FIG. 4A). Following alkali burn, neovessels are expected to grow from the periphery towards the center of the cornea. The extent of the neovascularization is then evaluated. Briefly, corneas were excised, fixed and stained with FITC-conjugated CD31/PECAM-1 to reveal corneal neovessels. […] The neovascular area was then calculated by measuring the Neovascular Area Index (NV Index). This was obtained by calculating the ratio of the neovascular area—obtained by joining together the inner tip of the neovessels—and the total surface of the cornea (i.e. the total area of the cornea).
Befetupitant (WO020008232) was dissolved in DMSO (Dimethyl SulfOxyde).

[3] = test system: healthy cornea; assay: Toxicity following topical application in healthy eyes; type: in vivo, C57Bl/6 mice
Protocol: as §1, §2
Fosaprepitant toxicity was tested on the healthy cornea by administering to 3 healthy C57Bl/6 mice fosaprepitant (purchased from Universal Drug Store, Canada and diluted as per technical sheet instructions with 0.9% NaCl solution to reach a final concentration of 1 mg/ml) at the concentration of 1 mg/ml in the conjunctival sac 4 times per day for 1 week. In vivo corneal biomicroscopy imaging and hematoxylin eosin ocular cross sections were checked as markers for toxicity.

[4] = test system: corneal neovascularization; assay: Alkali burn (sodium hydroxide caustication) neovascularization model; type: in vivo, C57Bl/6 mice
[5] = test system: growth of capillary vessels; conditions: slow release pellets in avascular cornea of rabbits; cited from earlier work
[6] = test system: endothelial cells; conditions: in vitro; cited from earlier work
[7] = test system: CNV; conditions: humans, topical administration; cited from earlier work
[8] = test system: CNV; conditions: in vivo; cited from earlier work
[9] = 1 mg/ml topical, 4 times per day for 1 week, versus placebo
[10] = increasing dose 0.4, 1.6, 6.4 mg/ml topical, 6 times a day for 4 days, Day 4

For C[C@@H](O[C@H]1OCCN(Cc2nc(O)n(P(=O)(O)O)n2)[C@H]1c1ccc(F)cc1)c1cc(C(F)(F)F)cc(C(F)(F)F)c1 [fosaprepitant, [3-{[(2R,3S)-2-[(1R)-1-[3,5-bis(trifluoromethyl)phenyl]ethoxy]-3-(4-fluorophenyl)morpholin-4-yl]methyl}-5-oxo-2H-1,2,4-triazol-1-yl]phosphonic acid], the “length of the vessels” value ([1]; slit lamp, 7 days after implantation) was “appeared reduced”, the “area of normally avascular cornea invaded by neovessels” value ([1]; versus placebo) was “smaller” and the “density of vascular ramifications (number of vascular branches per surface unit)” value ([1]; versus placebo) was “reduced”. The “corneal neovascularization (slit lamp, CD31/PECAM-1 whole mounts)” value ([1]; conjunctival sac, 7 days after implantation, versus placebo (PBS)) was “less neovascularization; also recorded: reduces corneal neovascularization”, the “area of normally avascular cornea invaded by neovessels” value [2, 9] was “smaller” and the “alteration of corneal epithelium, stroma or endothelium at slit lamp observation” value ([3]; 1 mg/ml topical, 4 times per day, up to 7 days, healthy corneas) was “No alteration”. The “hematoxylin-eosin staining of eyeball cross-sections (epithelium, stroma, endothelium)” value ([3]; 1 mg/ml topical, 4 times per day, 7 days) was “no anatomical alteration was detected”, the “toxicity to the cornea” value ([3]; topical application (FIG. 3)) was “not toxic” and the “corneal neovascularization (slit lamp, epifluorescent microscopy)” value ([4]; 1 mg/ml topical, 4 times per day for 1 week, 7 days after caustication, versus placebo (PBS)) was “remarkably reduced; also recorded: reduces corneal neovascularization”. For the same compound, the “density of vascular ramifications (number of vascular branches per surface unit)” value [4, 9] was “reduced” and the corneal transparency ([4]; 1 mg/ml topical, 4 times per day for 1 week, versus placebo-treated corneas) was “much improved”.

With COc1ccccc1CN(C[C@@H](Cc1c[nH]c2ccccc12)NC(=O)CN1CCC(N2CCCCC2)CC1)C(C)=O [lanepitant] the “Neovascular Area Index (NV Index)” value ([2]; 6.4 mg/ml topical, 6 times a day for 4 days, compared to vehicle) was “statistically significant reduction”, the “anatomy of the eyelids” value ([2]; 0.4, 1.6, 6.4 mg/ml topical, 6 times a day for 4 days, Day 4, versus vehicle) was “appeared better preserved” and the corneal transparence ([2]; increasing dose 0.4, 1.6, 6.4 mg/ml topical, 6 times a day for 4 days from day of injury, Day 4, versus vehicle (PBS)) was “increased corneal transparence”. The “Neovascular Area Index (NV Index)” value [2, 10] was “progressively reduced”, the “corneal neovessels (CD31/PECAM-1)” value [2, 10] was “progressively reduced; also recorded: reduces corneal neovascularization” and the “effect on neovascularization compared to the same dose administered after the tissue injury” value ([2]; pre-treatment 1.6 mg/ml versus 1.6 mg/ml started on day of injury) was “increased effect”. For the same compound, the corneal perforation [2] was “reduced”, the corneal transparency [2] was “increased” and the “incidence of symblepharon and ankyloblepharon” value [2] was “reduced”. For the same compound, the lid anatomy [2] was “appeared better preserved”, the “Cornea Neovascular Index” value ([4]; pre-treatment: 1.6 mg/ml topical, 6 times a day from before the injury through Day 3, day 4) was “statistically significant reduction” and the corneal neovascularization ([4]; pre-treatment: 1.6 mg/ml topical, 6 times a day from before the injury through Day 3, day 4, versus vehicle) was “appeared reduced; also recorded: reduces corneal neovascularization”.

In the case of “Substance P: C-amidated decapeptide of the tachykinin family; principal receptor NK-1 (RPKPQQFFGLM-NH2; UniProt P20366 58-68, looked up)”, the “vessel growth in the cornea” value [5] is listed as “induced a marked neovascularization” and the “proliferation of endothelial cells” value [6] is listed as “increased proliferation”.

In the case of Cc1ccccc1-c1cc(N2CCOCC2)ncc1N(C)C(=O)C(C)(C)c1cc(C(F)(F)F)cc(C(F)(F)F)c1 [befetupitant], the “Corneal Neovascular Index” value ([2]; 0.4 mg/ml topical, 3 times a day for 9 days, compared to vehicle (DMSO)) is reported as “statistically significant reduction”, the corneal perforation [2] is reported as “reduced” and the corneal transparency [2] is reported as “increased”. The “incidence of symblepharon and ankyloblepharon” value [2] was “reduced”, the lid anatomy [2] was “appeared better preserved” and the “Corneal Neovascular Index” value ([4]; 1.6 mg/ml topical, 3 times a day for 9 days, compared to vehicle (DMSO)) was “statistically significant reduction”. The “corneal neovessels (CD31/PECAM-1)” value ([4]; increasing doses 0.4, 1.6 mg/ml in DMSO, topical, 3 times a day for 9 days, day 9) was “reduced; also recorded: reduces corneal neovascularization”.

For “bevacizumab: anti-VEGF monoclonal antibody”, the “inhibiting CNV” value [7] is listed as “some effect”.

In the case of CC(=O)OCC(=O)[C@@]1(O)CC[C@H]2[C@@H]3CCC4=CC(=O)CC[C@]4(C)C3=CC[C@@]21C [anecortave acetate], the “efficacy in animal models of CNV” value [8] is given as “effective”.
